Data from paper PMC5508519 (Bioorganic & medicinal chemistry letters, 2017).

Key:
[1] = predicted hepatic clearance from human microsomal CLint; assay type: in vitro ADME; conditions: based on CLint data from microsomes
hM4 = biological target: T1, hM4 (Homo sapiens, UniProt P08173); test: calcium mobilization assay, hM4 CHO cells co-transfected with Gqi5, ACh EC80; assay type: cell-based; conditions: SAR text on Table 2
T1 sequence (P08173 1-479): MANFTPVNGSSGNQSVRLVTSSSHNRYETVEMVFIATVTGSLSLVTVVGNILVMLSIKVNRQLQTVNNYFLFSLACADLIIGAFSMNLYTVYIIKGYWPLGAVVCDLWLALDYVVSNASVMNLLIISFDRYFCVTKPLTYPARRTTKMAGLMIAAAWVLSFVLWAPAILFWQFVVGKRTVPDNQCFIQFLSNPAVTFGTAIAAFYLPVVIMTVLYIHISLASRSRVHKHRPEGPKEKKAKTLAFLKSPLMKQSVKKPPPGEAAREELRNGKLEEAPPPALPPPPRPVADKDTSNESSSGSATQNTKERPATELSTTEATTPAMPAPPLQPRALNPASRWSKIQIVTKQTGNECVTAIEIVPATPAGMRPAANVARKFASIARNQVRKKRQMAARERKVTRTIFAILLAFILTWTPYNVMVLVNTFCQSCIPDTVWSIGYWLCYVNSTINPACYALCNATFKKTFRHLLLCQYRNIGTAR

M1 = biological target: T2, M1 (Homo sapiens, UniProt P11229); test: calcium mobilization assay, hM1 CHO cells, approximate EC80 of ACh; assay type: cell-based; conditions: n = 1
T2 sequence (P11229 1-460): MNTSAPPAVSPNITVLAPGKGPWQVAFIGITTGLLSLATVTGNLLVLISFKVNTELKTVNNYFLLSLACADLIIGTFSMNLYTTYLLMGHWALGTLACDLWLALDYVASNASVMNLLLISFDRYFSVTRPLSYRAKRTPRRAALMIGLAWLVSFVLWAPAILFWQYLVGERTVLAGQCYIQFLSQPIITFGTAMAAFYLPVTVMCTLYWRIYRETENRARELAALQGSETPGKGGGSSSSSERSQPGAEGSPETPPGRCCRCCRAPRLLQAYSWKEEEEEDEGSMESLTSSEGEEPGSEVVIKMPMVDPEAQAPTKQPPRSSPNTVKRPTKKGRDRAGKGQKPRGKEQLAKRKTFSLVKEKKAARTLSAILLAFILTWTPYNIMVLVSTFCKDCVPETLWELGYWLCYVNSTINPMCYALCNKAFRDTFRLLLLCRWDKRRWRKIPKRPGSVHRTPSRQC

M5 = biological target: T3, M5 (Homo sapiens, UniProt P08912); test: calcium mobilization assay, hM5 CHO cells, approximate EC80 of ACh; assay type: cell-based; conditions: n = 1
T3 sequence (P08912 1-532): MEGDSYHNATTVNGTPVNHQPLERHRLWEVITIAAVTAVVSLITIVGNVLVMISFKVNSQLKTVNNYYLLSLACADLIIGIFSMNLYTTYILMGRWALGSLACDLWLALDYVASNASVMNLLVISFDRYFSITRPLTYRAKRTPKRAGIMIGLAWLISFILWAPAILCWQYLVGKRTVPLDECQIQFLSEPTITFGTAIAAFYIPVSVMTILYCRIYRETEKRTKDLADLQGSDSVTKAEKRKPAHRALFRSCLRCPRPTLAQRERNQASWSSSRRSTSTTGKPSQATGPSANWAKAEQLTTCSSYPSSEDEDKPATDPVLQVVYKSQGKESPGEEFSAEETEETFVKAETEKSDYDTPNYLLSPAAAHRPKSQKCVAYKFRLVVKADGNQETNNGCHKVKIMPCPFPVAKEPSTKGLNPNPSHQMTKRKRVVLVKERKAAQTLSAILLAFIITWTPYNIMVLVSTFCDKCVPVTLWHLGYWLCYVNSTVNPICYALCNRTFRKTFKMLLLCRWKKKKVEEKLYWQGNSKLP

Structure (SMILES) | predicted hepatic clearance CLhep (human) [1] [mL/min/kg] | predicted hepatic clearance CLhep (rat) [mL/min/kg] | M4 inhibitory activity (in words) (hM4) | also measured
CCc1ccc(Oc2cc(N3CCC(C(=O)N4CCc5ccccc5C4)CC3)ncn2)cc1 [Compound 5] | 20.3 | 68.6 |  | 
COc1ccc2c(c1)CCN(C(=O)C1CCN(c3cc(Oc4ccc(F)cc4F)ncn3)CC1)C2 [Compound 17b] |  |  | retained M4 inhibitory activity | 
COc1ccc2c(c1)CN(C(=O)C1CCN(c3cc(Oc4ccc(F)cc4F)ncn3)CC1)CC2 [Compound 17c] |  |  | retained M4 inhibitory activity | 

Now from value to compound, other results behind:

predicted hepatic clearance CLhep (human) [1] [mL/min/kg] | predicted hepatic clearance CLhep (rat) [mL/min/kg] | M4 inhibitory activity (in words) (hM4) | Structure (SMILES) | also measured
 |  | retained M4 inhibitory activity | O=C(C1CCN(c2cc(Oc3ccc(F)cc3F)ncn2)CC1)N1CCC2CCCCC2C1 (stereo not shown) [Compound 17d] | 
5.56 | 36.5 |  | O=C(C1CCN(c2cc(Oc3ccc(F)cc3F)ncn2)CC1)N1Cc2ccccc2C1 [Compound 17e, (1-(6-(2,4-difluorophenoxy)pyrimidin-4-yl)piperidin-4-yl)(isoindolin-2-yl)methanone] | M1 % ACh Min (M1): 18.2 % ACh Min; M5 % ACh Min (M5): 42.6 % ACh Min; predicted CLhep with inclusion of binding terms in the well-stirred model (rat): 5.93 mL/min/kg
